# Results: the supplement of paper PMC10307832
# Compound: CC1(COc2ccc3c(c2)ncn3-c2ccc3cccc(N4CCC(N)CC4)c3n2)COC1 [Crenolanib] + COc1cccc2cc(-c3nc([C@H]4CC[C@H](C(=O)O)CC4)n4ncnc(N)c34)[nH]c12 [OSI-027] (partner 0.5 µM)
# Experiment: relative viability (nuclei count vs DMSO), 5 days (fraction); higher = more cells survive
# Conditions: first compound 0.01 µM
# How it was run: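 Lung cancer cell lines were pin-tool dosed in 1536-well plates on the day after seeding, with either a lone drug or a fixed anchor-drug dose plus five library-drug doses (not always all listed) in √10 steps. Nuclei were counted on 4× images after 5 days. Relative viability is the ratio of treated-well to vehicle-well nuclei counts, with each value a median of duplicate plates.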
row,Cell Line,relative viability
1,NCI-H647,0.588
2,LK-2,0.208
3,NCI-H2126,0.727
4,NCI-H2342,0.704
5,SK-MES-1,0.598
6,HARA,0.639
7,COR-L23,0.721
8,COR-L 105,0.842
9,LC-2-ad,0.939
10,LU99A,0.305
11,ChaGo-K-1,0.659
12,NCI-H2170,0.82
13,NCI-H3122,1.01
14,HCC-78,0.433
15,SW 900,0.677
16,LXF-289,0.844
17,BEN,0.302
18,HCC-15,0.742

row,Cell Line,relative viability
1,HCC-827,0.793
2,NCI-H441,0.929
3,LOU-NH91,0.765
4,NCI-H2023,0.466
5,A-427,0.519
6,NCI-H460,0.825
7,NCI-H727,0.782
8,NCI-H1755,0.701
9,NCI-H520,0.245
10,NCI-H2405,0.672
11,SW 1573,0.667
12,NCI-H1395,0.749
13,201T,0.505
14,NCI-H1975,0.717
15,HOP-62,0.868
16,NCI-H2347,0.326
17,NCI-H1355,0.491

# Same assay, conditions: first compound 0.03162 µM
row,Cell Line,relative viability
1,NCI-H647,0.623
2,LK-2,0.195
3,NCI-H2126,0.691
4,NCI-H2342,0.599
5,SK-MES-1,0.657
6,HARA,0.501
7,COR-L23,0.849
8,COR-L 105,0.783
9,LC-2-ad,0.793
10,LU99A,0.318
11,ChaGo-K-1,0.634
12,NCI-H2170,0.744
13,NCI-H3122,0.974
14,HCC-78,0.32
15,SW 900,0.575
16,LXF-289,0.764
17,BEN,0.339

row,Cell Line,relative viability
1,HCC-15,0.695
2,HCC-827,0.691
3,NCI-H441,0.6
4,LOU-NH91,0.729
5,NCI-H2023,0.426
6,A-427,0.54
7,NCI-H460,0.685
8,NCI-H727,0.649
9,NCI-H1755,0.797
10,NCI-H520,0.284
11,NCI-H2405,0.64
12,SW 1573,0.664
13,NCI-H1395,0.626
14,201T,0.605
15,NCI-H1975,0.792
16,HOP-62,0.833
17,NCI-H1355,0.382

# Same assay, conditions: first compound 0.1 µM
row,Cell Line,relative viability
1,NCI-H647,0.79
2,LK-2,0.233
3,NCI-H2126,0.751
4,NCI-H2342,0.592
5,SK-MES-1,0.508
6,HARA,0.319
7,COR-L23,0.654
8,COR-L 105,0.642
9,LC-2-ad,0.792
10,LU99A,0.257
11,ChaGo-K-1,0.572
12,NCI-H2170,0.706
13,NCI-H3122,0.962
14,SW 900,0.46
15,LXF-289,0.752
16,BEN,0.305

row,Cell Line,relative viability
1,HCC-15,0.676
2,HCC-827,0.742
3,NCI-H441,0.507
4,LOU-NH91,0.642
5,NCI-H2023,0.378
6,A-427,0.421
7,NCI-H460,0.682
8,NCI-H727,0.731
9,NCI-H1755,0.696
10,NCI-H520,0.311
11,SW 1573,0.51
12,NCI-H1395,0.666
13,201T,0.695
14,NCI-H1975,0.668
15,HOP-62,0.872
16,NCI-H1355,0.409

# Same assay, conditions: first compound 0.3162 µM
row,Cell Line,relative viability
1,NCI-H647,0.709
2,LK-2,0.17
3,NCI-H2126,0.721
4,NCI-H2342,0.726
5,SK-MES-1,0.581
6,HARA,0.591
7,COR-L23,0.81
8,COR-L 105,1
9,LC-2-ad,0.706
10,LU99A,0.331
11,ChaGo-K-1,0.631
12,NCI-H2170,0.828
13,NCI-H3122,1.17
14,HCC-78,0.345
15,SW 900,0.657
16,LXF-289,0.786
17,BEN,0.321
18,HCC-15,0.616

row,Cell Line,relative viability
1,HCC-827,0.885
2,NCI-H441,0.539
3,LOU-NH91,0.717
4,NCI-H2023,0.434
5,A-427,0.48
6,NCI-H460,0.752
7,NCI-H727,0.614
8,NCI-H1755,0.708
9,NCI-H520,0.306
10,NCI-H2405,0.671
11,SW 1573,0.493
12,NCI-H1395,0.605
13,201T,0.763
14,NCI-H1975,0.682
15,HOP-62,1.03
16,NCI-H2347,0.482
17,NCI-H1355,0.417

# Same assay, conditions: first compound 1 µM
row,Cell Line,relative viability
1,NCI-H647,0.705
2,LK-2,0.183
3,NCI-H2126,0.644
4,NCI-H2342,0.594
5,SK-MES-1,0.599
6,HARA,0.396
7,COR-L23,0.714
8,COR-L 105,0.691
9,LC-2-ad,0.554
10,LU99A,0.264
11,ChaGo-K-1,0.594
12,NCI-H2170,0.669
13,NCI-H3122,1.06
14,HCC-78,0.338
15,SW 900,0.342
16,LXF-289,0.706
17,BEN,0.314
18,HCC-15,0.393
19,HCC-827,0.821
20,NCI-H441,0.463
21,LOU-NH91,0.624
22,NCI-H2023,0.292
23,A-427,0.431
24,NCI-H460,0.598
25,NCI-H727,0.431
26,NCI-H1755,0.653
27,NCI-H520,0.318
